Measured values as given in US9255072B2, “Pyrazole compounds and thiazole compounds as protein kinases inhibitors” (National Health Rsearch Institutes, priority 2011, dated 2016).
Like-named read-outs stand apart in the source and are kept apart here.

Columns and labels:
[1] = biological target: T1, wt-FLT3 (Homo sapiens, UniProt P36888); test: FLT3 WT Kinase-Glo assay; type: biochemical; conditions: table of representative values; read-out: IC50 (nM) wt-FLT3
T1 construct: FLT3 kinase catalytic domain (residues Y567˜S993); made in house; host or cells: Sf9 insect cells (baculovirus, pBac-PAK8-GST-FLT3-KD plasmid)
T1 sequence (P36888 567-993): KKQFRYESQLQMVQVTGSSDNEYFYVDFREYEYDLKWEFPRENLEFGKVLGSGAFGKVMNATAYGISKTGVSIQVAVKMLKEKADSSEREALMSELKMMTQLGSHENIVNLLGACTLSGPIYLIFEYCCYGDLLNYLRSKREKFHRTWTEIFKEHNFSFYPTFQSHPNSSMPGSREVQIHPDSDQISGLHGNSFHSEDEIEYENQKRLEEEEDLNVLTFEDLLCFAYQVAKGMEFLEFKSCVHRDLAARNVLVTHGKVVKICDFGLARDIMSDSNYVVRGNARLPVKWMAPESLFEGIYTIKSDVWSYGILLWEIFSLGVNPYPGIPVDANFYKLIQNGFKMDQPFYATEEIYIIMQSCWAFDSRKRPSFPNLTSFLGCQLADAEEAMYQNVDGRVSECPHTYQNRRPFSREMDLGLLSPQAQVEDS
Procedure: GST-FLT3-KD^WT containing the FLT3 kinase catalytic domain (residues Y567˜S993) were expressed in Sf9 insect cells transfected the baculovirus containing pBac-PAK8-GST-FLT3-KD plasmid. […] Following incubation, 50 μl Kinase-Glo Plus Reagent (Promega, Madison, Wis., USA) was added to each well and the mixture was incubated at 25° C. for 20 min. A 70-μL aliquot of each reaction mixture was transferred to a black microtiter plate and the luminescence was measured on Wallac Vector 1420 multilabel counter (PerkinElmer, Shelton, Conn., USA).

[2] = biological target: T2, VEGFR2 (Homo sapiens, UniProt P35968); test: VEGFR2 Kinase-Glo kinase assay; type: biochemical
T2 construct: GST-VEGFR2 (residues V789-V1356); GST (N); made in house; host or cells: Sf9 insect cells
Procedure: (§1) The recombinant GST-VEGFR1 (residues R781-I1338) or GST-VEGFR2 (residues V789-V1356) containing kinase domain were expressed in Sf9 insect cells. The kinase assay were carried out in 96-well plates with tested compound in a final volume of 50 μl reaction at 30° C. for 120 minutes with following components: 25 mM HEPES pH 7.4, 10 mM MgCl2, 4 mM MnCl2, 0.5 mM Na3VO4, 2 mM DTT, 0.02% Triton X100, 0.01% BSA, 1 μM ATP, 2 μM polyGlu4:Tyr peptide, 50˜100 ng recombinant VEGFR1 or VEGFR2. Following incubation, 50 μl Kinase-Glo Plus Reagent (Promega, Madison, Wis., USA) was added to each well and the mixture was incubated at 25° C. for 20 min. A 70-μL aliquot of each reaction mixture was transferred to a black microtiter plate and the luminescence was measured on Wallac Vector 1420 multilabel counter (PerkinElmer, Shelton, Conn., USA).

[3] = biological target: T3, VEGFR1 (Homo sapiens, UniProt P17948); test: VEGFR1 Kinase-Glo kinase assay; type: biochemical
T3 construct: GST-VEGFR1 (residues R781-I1338); GST (N); made in house; host or cells: Sf9 insect cells
T3 sequence (P17948 781-1338): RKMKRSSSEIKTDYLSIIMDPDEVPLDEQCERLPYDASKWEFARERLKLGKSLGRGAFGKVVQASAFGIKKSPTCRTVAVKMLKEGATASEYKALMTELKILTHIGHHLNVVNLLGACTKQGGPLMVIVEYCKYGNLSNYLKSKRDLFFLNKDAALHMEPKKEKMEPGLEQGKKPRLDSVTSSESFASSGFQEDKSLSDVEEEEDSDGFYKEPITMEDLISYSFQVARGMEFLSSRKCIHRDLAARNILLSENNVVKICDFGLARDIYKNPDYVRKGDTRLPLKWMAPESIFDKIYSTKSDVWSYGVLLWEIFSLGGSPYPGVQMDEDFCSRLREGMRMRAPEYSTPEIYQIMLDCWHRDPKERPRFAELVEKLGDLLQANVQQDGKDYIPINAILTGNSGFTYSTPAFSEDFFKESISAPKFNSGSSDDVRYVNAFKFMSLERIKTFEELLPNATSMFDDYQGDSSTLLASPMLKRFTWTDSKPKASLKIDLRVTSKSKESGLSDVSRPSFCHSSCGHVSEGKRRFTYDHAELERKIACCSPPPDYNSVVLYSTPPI
Procedure: as §1

[4] = system: MOLM-13 cell; test: MTS cell viability assay; type: cell-based; conditions: Homo sapiens, MOLM-13, 72 h, table of representative values
Source text: The leukemias cell lines MOLM-13, MV4:11, RSV4:11, MOLT-4, U937, and K562 were purchased from American Type Culture Collection (ATCC, Manassas, Va., USA). The non-leukemias cell lines HCC827, H1975, NCIH460, A431, Huh7, SF268, MCF-7, HCT-116, and normal human fetal fibroblast cell line Detriot 551 were purchased from American Type Culture Collection (ATCC, Manassas, Va., USA). All leukemias cell lines and HCC827, H1975, NCIH460, A431 were maintained in RPMI 1640 medium supplemented with 10% fetal bovine serum (FBS), 10 U/ml penicillin, and 10 µg/ml streptomycin at 37° C. and 5% CO2. The cell lines Huh7, SF268, MCF-7, and Detroit 551 were cultured in DMEM medium supplemented with 10% FBS, 0.01% nonessential amino acids, 10 U/ml penicillin, and 10 µg/ml streptomycin. HCT-116 were cultured in McCoy's 5A medium supplemented with 10% FBS, 0.01% nonessential amino acids, 10 U/ml penicillin, and 10 µg/ml streptomycin. To determine cell viability after drug treatment, assays were performed by seeding 10,000 cells (leukemias cell lines) or 2,500 cells (non-leukemias cell lines) per well in a 96-well culture plate. After 16 h, cells were then treated with vehicle or various concentrations of compound in medium for 72 h. Viable cells were quantitated using the MTS method (Promega, Madison, Wis., USA) according to the manufacturer's recommended protocol. The results were determined by measuring the absorbance at 490 nm using a plate reader (Victor2; PerkinElmer, Shelton, Conn., USA).

[5] = biological target: T4, Aurora A (Homo sapiens, UniProt O14965); test: Aurora kinase A Kinase-Glo kinase assay; type: biochemical
T4 construct: GST-Aurora A (residues S123-S401); GST (N); made in house; host or cells: Sf9 insect cells
T4 sequence (O14965 123-401): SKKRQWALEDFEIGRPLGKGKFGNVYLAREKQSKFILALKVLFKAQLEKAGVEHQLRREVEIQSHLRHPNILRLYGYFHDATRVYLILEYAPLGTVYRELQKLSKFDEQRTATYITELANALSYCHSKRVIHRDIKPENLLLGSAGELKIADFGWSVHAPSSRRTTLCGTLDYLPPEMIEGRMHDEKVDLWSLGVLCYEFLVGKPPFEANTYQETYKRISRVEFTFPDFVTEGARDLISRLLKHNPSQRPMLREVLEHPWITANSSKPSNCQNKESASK
Procedure: The recombinant GST-Aurora A (residues S123-S401) containing kinase domain were expressed in Sf9 insect cells. The kinase assay were carried out in 96-well plates with tested compound in a final volume of 50 μl reaction at 37° C. for 90 minutes with following components: 50 mM Tris-HCl pH 7.4, 10 mM NaCl, 10 mM MgCl2, 0.01% BSA, 5 μM ATP, 1 mM DTT and 15 μM tetra(LRRASLG) peptide, and 150 ng recombinant Aurora A. Following incubation, 50 μl Kinase-Glo Plus Reagent (Promega, Madison, Wis., USA) was added to each well and the mixture was incubated at 25° C. for 20 min. A 70-μL aliquot of each reaction mixture was transferred to a black microtiter plate and the luminescence was measured on Wallac Vector 1420 multilabel counter (PerkinElmer, Shelton, Conn., USA).

[6] = VEGFR2 assay, 1 μM ATP, bound in μM, read-out: IC50
[7] = VEGFR2 assay, 1 μM ATP, ranges in nM, read-out: IC50
[8] = table of representative values, read-out: IC50 (nM) VEGFR2
[9] = VEGFR1 assay, 1 μM ATP, bound in μM, read-out: IC50
[10] = table of representative values, read-out: IC50 (nM) VEGFR1
[11] = VEGFR1 assay, 1 μM ATP, bound in nM, read-out: IC50
[12] = table of representative values, read-out: IC50 (nM) Aurora A
[13] = Aurora A assay, 5 μM ATP, bound in nM, read-out: IC50
[14] = Aurora A assay, 5 μM ATP, bound in μM, read-out: IC50

T2 sequence (P35968 789-1356): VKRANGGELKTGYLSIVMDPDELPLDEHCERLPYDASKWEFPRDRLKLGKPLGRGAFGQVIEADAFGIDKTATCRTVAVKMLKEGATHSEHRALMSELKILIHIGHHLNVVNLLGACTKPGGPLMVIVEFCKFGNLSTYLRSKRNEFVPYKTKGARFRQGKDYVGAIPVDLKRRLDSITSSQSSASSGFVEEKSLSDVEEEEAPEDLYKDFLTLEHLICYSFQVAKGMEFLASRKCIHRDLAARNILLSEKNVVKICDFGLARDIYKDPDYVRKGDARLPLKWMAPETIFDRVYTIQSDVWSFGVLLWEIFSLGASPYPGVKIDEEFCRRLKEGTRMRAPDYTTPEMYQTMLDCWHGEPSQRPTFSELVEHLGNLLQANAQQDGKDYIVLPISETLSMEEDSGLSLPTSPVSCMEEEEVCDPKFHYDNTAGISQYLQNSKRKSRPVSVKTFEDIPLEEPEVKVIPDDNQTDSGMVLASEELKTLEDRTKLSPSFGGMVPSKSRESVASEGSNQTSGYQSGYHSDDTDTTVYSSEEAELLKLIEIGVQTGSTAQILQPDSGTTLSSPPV

Row | IC50 [1] [nM] | IC50 [2, 6] [µM] | IC50 [2, 7] [µM] | IC50 [2, 8] [µM] | IC50 [3, 9] [µM] | IC50 [3, 10] [µM] | GI50 [4] [nM] | IC50 [3, 11] [µM] | IC50 [5, 12] [nM] | IC50 [5, 13] [nM] | IC50 [5, 14] [nM] | Compound
1 | 38 | < 1 | 0.001 to 0.055 | 0.023 | < 1 | 0.18 | 3 | – | – | – | – | CN1CCN(Cc2ccc(C(=O)Nc3cc(-c4ccc(CNC(=O)Nc5cc(C6CC6)on5)cc4)n[nH]3)cc2)CC1 [Compound 62d, N1-(3-4-[([(5-cyclopropyl-3-isoxazolyl)amino]carbonylamino)methyl]phenyl-1H-5-pyrazolyl)-4-[(4-methylpiperazino)methyl]benzamide]
2 | 26 | < 1 | 0.001 to 0.055 | 0.037 | < 1 | 0.029 | 2 | < 0.1 | > 1000 | – | – | CCc1cc(NC(=O)NCc2ccc(-c3cc(NC(=O)c4ccc(CN5CCN(C)CC5)cc4)[nH]n3)cc2)no1 [Compound 62b, N1-(3-4-[([(5-ethyl-3-isoxazolyl)amino]carbonylamino)methyl]phenyl-1H-5-pyrazolyl)-4-[(4-methylpiperazino)methyl]benzamide]
3 | 27 | < 1 | – | 0.151 | < 1 | 0.29 | 1 | – | 22 | < 200 | < 1000 | CCc1cc(NC(=O)Nc2ccc(-c3cc(NC(=O)c4ccc(OCCN5CCOCC5)cc4)[nH]n3)cc2C)no1 [Compound 46b, N1-3-[4-([(5-ethyl-3-isoxazolyl)amino]carbonylamino)-3-methylphenyl]-1H-5-pyrazolyl-4-(2-morpholinoethoxy)benzamide]
4 | 38 | < 1 | 0.001 to 0.055 | 0.037 | < 1 | 0.053 | 2 | < 0.1 | 41 | < 200 | < 1000 | Cc1cc(-c2cc(NC(=O)c3ccc(OCCN4CCOCC4)cc3)[nH]n2)ccc1NC(=O)Nc1cc(C2CC2)on1 [Compound 46c, N1-3-[4-([(5-cyclopropyl-3-isoxazolyl)amino]carbonylamino)-3-methylphenyl]-1H-5-pyrazolyl-4-(2-morpholinoethoxy)benzamide]
5 | 21 | < 1 | 0.001 to 0.055 | 0.045 | < 1 | 0.342 | 6 | – | – | – | – | O=C(NCc1ccc(-c2cc(NC(=O)c3ccc(OCCN4CCOCC4)cc3)[nH]n2)cc1)Nc1cc(C2CC2)on1 [Compound 59d, N1-(3-4-[([(5-cyclopropyl-3-isoxazolyl)amino]carbonylamino)methyl]phenyl-1H-5-pyrazolyl)-4-(2-morpholinoethoxy)benzamide]
